In US20090274731A1, “PRODUCTION OF ENVELOPED PHARMACEUTICAL DOSAGE FORMS” (ABBOTT GMBH & CO. KG, priority 2006, published 2009):

Experiment: Relative solubility of paracetamol in the release media
Format: physicochemical
Details: in 20% ethanol compared with 0.01 M HCl; in words

solubility: distinctly more soluble
Structure (SMILES): CC(=O)Nc1ccc(O)cc1 [paracetamol]
